Consider 11 compounds from patent US20250025427A1, “MIXED AMIDE ESTER CONTAINING LIPIDS FOR USE IN LIPID NANOPARTICLES” (Acuitas Therapeutics, Inc., priority 2023, published 2025).

The subject of one experiment is luciferase protein (FLuc mRNA) expression in liver. In words: Luciferase mRNA in vivo evaluation using lipid nanoparticle compositions. Set-up: species or system mice. As to conditions: LNP with the cationic lipid, 0.3 mg mRNA/kg, tail vein injection, ng luciferase/g liver 4 hours after administration. How it is done: (§1) A lipid of Formula (I), DSPC, cholesterol and PEG-lipid of Formula (II) are solubilized in ethanol at a molar ratio of 50:10:38.5:1.5 or 47.5:10:40.7:1.8. Lipid nanoparticles (LNP) are prepared at a total lipid to mRNA weight ratio of approximately 10:1 to 40:1. Briefly, the mRNA is diluted to 0.2 mg/mL in 10 to 50 mM citrate buffer, pH 4 to 6 or 10 to 25 mM acetate buffer, pH 4 to 6. Syringe pumps are used to mix the ethanolic lipid solution with the mRNA aqueous solution at a ratio of about 1:5 to 1:3 (vol/vol) with total flow rates above 15 mL/min. The ethanol is then removed, and the external buffer replaced with PBS by dialysis. Finally, the lipid nanoparticles are filtered through a 0.2 µm pore sterile filter.
Studies are performed in 6-8-week-old female C57BL/6 mice (Charles River) or 8-10-week-old CD-1 mice (Charles River or Inotiv) according to guidelines established by an institutional animal care committee (ACC) and the Canadian Council on Animal Care (CCAC). Varying doses of mRNA-lipid nanoparticle are systemically administered by tail vein injection and animals euthanized at a specific time point (e.g., 4 hours) post-administration. Liver and spleen are collected in pre-weighed tubes, weights determined, immediately snap frozen in liquid nitrogen, and stored at −80° C. until processing for analysis. […]
Take `CCCCCCCCCCN(CCCCCCCCCC)C(=O)CCCCCCCN(C)CCCCCCCC(=O)NCCCCCC(=O)OCC(CCCCCC)CCCCCCCC` (stereo not drawn) [Compound I-3, 2-Hexyldecyl 6-(8-((8-(Didecylamino)-8-Oxooctyl)(Methyl)Amino)Octanamido)Hexanoate]: the “Liver Luc (ng/g) @ 0.3 mg/kg” value is on record as 8191 ± 2369 ng/g.

The experiment is the same for the next values; noted with them: LNP with the cationic lipid, 1.0 mg mRNA/kg, tail vein injection, ng luciferase/g liver 4 hours after administration.
As for `CCCCCCCCCCN(CCCCCCCCCC)C(=O)CCCCCCCN(C)CCCCCCCC(=O)NCCCCCC(=O)OCC(CCCCCC)CCCCCCCC` (stereo not drawn) [Compound I-3, 2-Hexyldecyl 6-(8-((8-(Didecylamino)-8-Oxooctyl)(Methyl)Amino)Octanamido)Hexanoate], the “Liver Luc (ng/g) @ 1.0 mg/kg” value is 25381 ± 4022 ng/g.

The next experiment concerns human IgG in mouse serum. In words: Immunoglobulin G (IgG) mRNA in vivo evaluation using lipid nanoparticle compositions. Further details: species or system mice. To be noted: LNP with the cationic lipid, 0.3 mg mRNA/kg, tail vein injection, μg IgG/mL serum 24 hours after administration. How it is done:
as §1
Studies are performed in 6-8-week-old CD-1/ICR mice (Charles River or Inotiv) according to guidelines established by an institutional animal care committee (ACC) and the Canadian Council on Animal Care (CCAC). Varying doses of mRNA-lipid nanoparticle are systemically administered by tail vein injection and animals euthanized at a specific time point (e.g., 24 hours) post-administration. The whole blood is collected, and the serum subsequentially separated by centrifuging the tubes of the whole blood at 2000×g for 10 minutes at 4° C. and stored at −80° C. until use for analysis.
For immunoglobulin G (IgG) ELISA (Life Diagnostics Human IgG ELISA kit), the serum samples are diluted at 100 to 20,000 folds with 1× diluent solution. 100 μL of diluted serum is dispensed into anti-human IgG coated 96-well plate in duplicate alongside human IgG standards and incubated in a plate shaker at 150 rpm at 25° C. for 45 minutes. The wells are washed 5 times with 1× wash solution using a plate washer (400 μL/well). 100 μL of HRP conjugate is added into each well and incubated in a plate shaker at the same condition above. The wells are washed 5 times again with 1× wash solution using a plate washer (400 μL/well). 100 μL of TMB reagent is added into each well and incubated in a plate shaker at the same condition above. The reaction is stopped by adding 100 μL of Stop solution to each well. The absorbance is read at 450 nm (A450) with a microplate reader. The amount of human IgG in mouse serum is determined by plotting A450 values for the assay standard against human IgG concentration.
Representative compounds of the disclosure shown in Table 2 were formulated using the following molar ratio: 50% cationic lipid/10% distearoylphosphatidylcholine (DSPC)/38.5% Cholesterol/1.5% PEG lipid 2-[2-(ω-methoxy(polyethyleneglycohooo)ethoxy]-N,N-ditetradecylacetamide) or 47.5% cationic lipid/10% DSPC/40.7% Cholesterol/1.8% PEG lipid. Relative activity was determined by measuring the amount of human IgG […]. The activity was compared at a dose of 1.0 or 0.3 mg mRNA/kg and expressed as ng luciferase/g liver measured 4 hours after administration, as described in Example 1 or as μg IgG/mL serum measured 24 hours after administration, as described in Example 2. Compound numbers in Table 2 refer to the compound numbers of Table 1.
Consider `CCCCCCCCC(CCCCCC)COC(=O)CCCCCN(CCCCCC)C(=O)CCCCCN(CCCCCC(=O)N(CCCCCC)CCCCCC(=O)OCC(CCCCCC)CCCCCCCC)CCCOC` (stereo not drawn) [Compound I-37, Bis(2-Hexyldecyl) 6,6′-((6,6′-((3-Methoxypropyl)Azanediyl)Bis(Hexanoyl))Bis(Hexylazanediyl))Dihexanoate], for which the “Serum IgG (μg/mL) @ 0.3 mg/kg” value worked out at 63.0 ± 22.9 µg/mL.
With `CCCCCCCCCCCCCCCCN(CCCN(C)CCCCCCCC(=O)N(CCCCCCCCCC)CCCCCC(=O)OCC(CCCC)CCCCCC)C(=O)CCCCC(=O)OCC(CCCCCC)CCCCCCCC` (stereo not drawn) [Compound I-38, 2-Hexyldecyl 6-((3-((8-((6-((2-Butyloctyl)Oxy)-6-Oxohexyl)(Decyl)Amino)-8-Oxooctyl)(Methyl)Amino)Propyl)(Hexadecyl)Amino)-6-Oxohexanoate], the “Serum IgG (μg/mL) @ 0.3 mg/kg” value came out at 21.9 ± 8.8 µg/mL.
Same read-out and setting: under `CCCCCCCCCCN(CCCCCC(=O)OCC(CCCCCC)CCCCCCCC)C(=O)CCCCCCCN(C)CCCCCCCC(=O)N(CCCCCCCCCC)CCCCCC(=O)OCC(CCCCCC)CCCCCCCC` (stereo not drawn) [Compound I-40, Bis(2-Hexyldecyl) 6,6′-((8,8′-(Methylazanediyl)Bis(Octanoyl))Bis(Decylazanediyl))Dihexanoate] stands 13.8 ± 6.0 µg/mL.
Take `CCCCCCCCC(CCCCCC)COC(=O)CCCCCN(CCCCCCCC)C(=O)CCCCCCCN(C)CCCCCCCC(=O)N(CCCCCCCC)CCCCCC(=O)OCC(CCCCCC)CCCCCCCC` (stereo not drawn) [Compound I-41, Bis(2-Hexyldecyl) 6,6′-((8,8′-(Methylazanediyl)Bis(Octanoyl))Bis(Octylazanediyl))Dihexanoate]: the “Serum IgG (μg/mL) @ 0.3 mg/kg” value came to 19.2 ± 6.8 µg/mL.
As for `CCCCCCCCC(CCCCCC)COC(=O)CCCCCN(CCCCCCCCN(C)CCCCCCCCN(CCCCCC(=O)OCC(CCCCCC)CCCCCCCC)C(=O)CCCCC)C(=O)CCCCC` (stereo not drawn) [Compound I-43, Bis(2-Hexyldecyl) 6,6′-(((Methylazanediyl)Bis(Octane-8,1-Diyl))Bis(Hexanoylazanediyl))Dihexanoate], the “Serum IgG (μg/mL) @ 0.3 mg/kg” value is 49.9 ± 14.8 µg/mL.
As to `CCCCCCCCC(CCCCCC)COC(=O)CCCCC(=O)N(CCCCCC)CCCCCCCCN(C)CCCCCCCCN(CCCCCC)C(=O)CCCCC(=O)OCC(CCCCCC)CCCCCCCC` (stereo not drawn) [Compound I-45, Bis(2-Hexyldecyl) 6,6′-(((Methylazanediyl)Bis(Octane-8,1-Diyl))Bis(Hexylazanediyl))Bis(6-Oxohexanoate)], the “Serum IgG (μg/mL) @ 0.3 mg/kg” value is 18.3 ± 4.6 µg/mL.
As to `CCCCCCCCC(CCCCCC)COC(=O)CCCCCN(CCCCCC)C(=O)CCCCCN(C)CCCCCCCC(=O)N(CCCCCC)CCCCCCOC(=O)C(CCCCCC)CCCCCCCC` (stereo not drawn) [Compound I-46, 7,23,32-Trihexyl-16-Methyl-8,22,29-Trioxo-30-Oxa-7,16,23-Triazatetracontyl 2-Hexyldecanoate], the “Serum IgG (μg/mL) @ 0.3 mg/kg” value worked out at 34.4 ± 11.3 µg/mL.
As for `CCCCCCCCC(CCCCCC)COC(=O)CCCCCN(CCCCCC)C(=O)CCN(C)CCC(=O)N(CCCCCC)CCCCCC(=O)OCC(CCCCCC)CCCCCCCC` (stereo not drawn) [Compound I-48, Bis(2-Hexyldecyl) 6,6′-((3,3′-(Methylazanediyl)Bis(Propanoyl))Bis(Hexylazanediyl))Dihexanoate], the “Serum IgG (μg/mL) @ 0.3 mg/kg” value amounted to 27.5 ± 12.7 µg/mL.
The same measure, in the same setting: next, `CCCCCCCCC(CCCCCC)COC(=O)CCCCCCCCCN(CCCCCC)C(=O)CCCN(C)CCCC(=O)N(CCCCCC)CCCCCCCCCC(=O)OCC(CCCCCC)CCCCCCCC` (stereo not drawn) [Compound I-50, Bis(2-Hexyldecyl) 10,10′-((4,4′-(Methylazanediyl)Bis(Butanoyl))Bis(Hexylazanediyl))Bis(Decanoate)]: 11.6 ± 8.2 µg/mL; `CCCCCCCCC(CCCCCC)COC(=O)CCCCCN(CCCCCC)C(=O)CCCN(C)CCCC(=O)N(CCCCCC)CCCCCC(=O)OCC(CCCCCC)CCCCCCCC` (stereo not drawn) [Compound I-52, Bis(2-Hexyldecyl) 6,6′-((4,4′-(Methylazanediyl)Bis(Butanoyl))Bis(Hexylazanediyl))Dihexanoate]: 13.0 ± 4.1 µg/mL.
